# Measurements published in patent US20250186458A1, “METHODS FOR THE TREATMENT OF MILD COGNITIVE IMPAIRMENT” (BIOVIE INC., priority 2022, published 2025).
# Assays:
# [1] = tested on: patients with cognitive impairment consistent with MCI or mild probable AD; test: Open-label three-month study, cognitive tests (QDRS, MMSE, MoCA, ADAS-Cog12, Global Rating of Change); assay type: in vivo, human
# Description: Twenty-three patients, approximately equal numbers of men women, age 50-89 years, with cognitive impairment consistent with MCI or mild probable AD, but without other readily apparent major systemic disease were identified and received informed consent under the supervision of a central institution review board (IRB). Patients were qualified (screened) for the study by the following criteria, QDRS score ranging from 1.5-12.5, with a converted Clinical Dementia Rating (CDR) score of 0.5 (mild cognitive impairment) to 1 (mild dementia).
# Prior to treatment (baseline) concomitant medications were stabilized and the patients were tested for cognitive function by the Quick Dementia Rating Scale (QDRS), Clinical Dementia Rating (CDR) score as estimated by the QDRS, a modified form of the Alzheimer's Disease Assessment Scale (ADAS-Cog12), the Mini-Mental State Examination (MMSE), and the Montreal Cognitive Assessment (MoCA) and by multi-modal brain MRIs to establish pre-treatment data for glutathione levels (as measured by magnetic resonance spectroscopy, MRS), dendritic density (as measured by diffusion tensor imaging, DTI-NODDI); arterial signal compared (as quantified by arterial spin labeling, ASL), functional connectivity of the nucleus basalis of Meynert (NBM) with both hippocampi as well as between both hippocampi as visualized by seed analysis of blood-oxygen level dependent (BOLD) imaging, and neurovascular coupling as visualized by BOLD compared to baseline. Baseline samples of the patients' blood and cerebral spinal fluid were collected for evaluation of AD and inflammation biomarkers.
# Patients were treated with 20 mg 17α-ethynylandrost-5-ene-3β,7β,17β-triol oral capsules twice daily (BID for three months. All patients received 17α-ethynylandrost-5-ene-3β,7β,17β-triol; there were no placebo controls. Safety was monitored at clinical visits at 2 weeks, 4 weeks, 8 weeks, and completion. Routine hematology and clinical chemistry tests were performed at these visits and adverse events were monitored.
# At the end of the treatment schedule the baseline assessments for cognition, neuroimaging and biomarkers were repeated.
# [2] = tested on: patients with mild or moderate dementia; test: Exploratory Phase 2 trial NE3107-TRP-001 (ADAS-Cog 11, GRC, PHQ-9); assay type: in vivo, human; set-up: key to ADAS-Cog-11 score at 3M: ADAS-Cog11 score 0-70; higher = more severe cognitive impairment; conditions: for Patient Global Rating of Change (GRC): Month 3, scale −5 to 5; for ADAS-Cog-11 Change: baseline to 3M, decrease = improvement
# Experimental: An exploratory Phase 2 trial of 17α-ethynylandrost-5-ene-3β,7β,17β-triol (NE3107-TRP-001) in 23 patients with mild (n=17) or moderate dementia (n=6) were conducted. Comparisons between baseline and post-intervention (3 months) were evaluated via multi-modal brain magnetic resonance images (MRIs; primary endpoints), measures of glucose and insulin homeostasis, and neuropsychological testing (secondary endpoints).
# The interview results were compared with changes from baseline to Month 3 in cognitive functioning as measured by the ADAS-Cog11, and the patient-completed Global Rating of Change (GRC) at Month 3 in the Phase 2 trial (Table 8).
# The ADAS-Cog 11 is a performance-based assessment of cognitive function that includes 11 patient-completed tasks that measure word recall, objective/figure naming, command following, constructional praxis, ideational praxis, orientation, word recognition, test direction recall, spoken language, comprehension, and word-finding difficulty. Scores range from 0-70 where higher scores indicate more severe cognitive impairment (i.e., decreases in score over time indicate improvement in cognition). The GRC is a single item that asks patients to rate changes in their condition, abilities, and overall sense of well-being from the start of the trial. Scores range from −5 (“Very much worse”) to 0 (“Unchanged”) to +5 (“Very much better”).
# [3] = overall population, three months
# [4] = patients with a baseline MMSE score 20, three months
smiles,measurement,setting,value
"C#C[C@]1(O)CC[C@H]2[C@@H]3[C@@H](O)C=C4C[C@@H](O)CC[C@]4(C)[C@H]3CC[C@@]21C [17α-ethynylandrost-5-ene-3β,7β,17β-triol, 17-ethynyl-10R, 13S-dimethyl 2,3,4,7, 8R, 9S, 10, 11, 12, 13, 14S, 15, 16, 17-hexadecahydro-1H-cyclopenta[a]phenanthrene-3R, 7R, 17S-triol]","QDRS, median decrease","[1]; 20 mg oral BID, three months vs baseline",0.75 points
same,"GSR scores improved, by patients","[1]; MCI patients, three months",15 of 17
same,"GSR scores improved, by study partners","[1]; MCI patients, three months",11 of 17
same,"GSR scores improved, by the clinician","[1]; MCI patients, three months",16 of 17
same,Median QDRS behavioral improved,"[1]; MCI patients, three months",one
same,"Montreal Cognitive Assessment, improved","[1]; MCI patients, three months",7 of 17
same,"QDRS behavioral, improved","[1]; MCI patients, three months",11 of 18
same,"ADAS Cog 12, median score improved","[1]; MCI population, three months",2.3 points
same,"ADAS Cog 12 score, improved","[1]; MCI population, three months",14 of 17
same,"MMSE score, improved","[1]; MCI population, three months",8 of 17
same,"QDRS, patients improved","[1]; of patients evaluated, 20 mg oral BID, three months",14 of 21
same,"ADAS Cog 12, median score improved",[1]; [3],0.67 points
same,"ADAS Cog 12 score, improved",[1]; [3],14 of 23
same,"Global Rating of Change (GRS), clinician's score improved",[1]; [3],18 of 23
same,"Global Rating of Change (GRS), patient's self-evaluation score improved",[1]; [3],18 of 23
same,"Global Rating of Change (GRS), score from study partners improved",[1]; [3],13 of 22
same,"MMSE score, improved",[1]; [3],9 of 23
same,"Montreal Cognitive Assessment, patients improved",[1]; [3],9 of 23
same,improved (QDRS),[1]; [4],12/17
same,median score improvement (QDRS),[1]; [4],one
same,Median QDRS cognition subscores improved (declined),[1]; three months vs baseline,0.5 points
same,"QDRS cognition subscores, patients improved",[1]; three months vs baseline,16/23
same,"increase in ADAS-Cog 11 score, where not decreased","[2]; all interviewed patients, 3-month follow up, 3.1 to 3.8 points = clinically significant worsening",< 3.1 points
same,mean PHQ-9 score decrease,[2]; change from baseline,4.3 points
same,improvement in depression symptoms (PHQ-9),[2]; patients with baseline PHQ-9 score ≥5,greatest improvement in depression symptoms
same,"individual PHQ-9 domains (apathy, depressive symptoms, sleep disturbance, fatigue, eating disorders, low self-esteem)",[2]; patients with baseline PHQ-9 score ≥5 compared to all patients,"greater improvement, compared to all patients"
same,Global Rating of Change (GRC),"[2]; patients with mild dementia, 3 months",improvements on the Global Rating of Change
same,ADAS-Cog 11 decrease,"[2]; patients with mild dementia, baseline vs 3 months, p=0.0046",2.6 point
same,Patient Global Rating of Change (GRC),[2]; subject N-02-22,−5
same,ADAS-Cog-11 score at 3M,"[2]; subject N-02-22, baseline 5.00",5.67
same,ADAS-Cog-11 Change,[2]; subject N-02-22,+0.67
same,Patient Global Rating of Change (GRC),[2]; subject N-03-22,3.5
same,ADAS-Cog-11 score at 3M,"[2]; subject N-03-22, baseline 11.33",6.00
same,ADAS-Cog-11 Change,[2]; subject N-03-22,−5.33
same,Patient Global Rating of Change (GRC),[2]; subject N-07-22,1
same,ADAS-Cog-11 score at 3M,"[2]; subject N-07-22, baseline 19.33",14.67
same,ADAS-Cog-11 Change,[2]; subject N-07-22,−4.67
same,Comparison (ADAS-Cog 11/GRC/Interview),[2]; subject N-10-22,+/−/NC
same,Patient Global Rating of Change (GRC),[2]; subject N-10-22,−1
same,ADAS-Cog-11 score at 3M,"[2]; subject N-10-22, baseline 5.00",2.33
same,ADAS-Cog-11 Change,[2]; subject N-10-22,−2.67
same,Comparison (ADAS-Cog 11/GRC/Interview),[2]; subject N-14-22,+/+/NC
same,Patient Global Rating of Change (GRC),[2]; subject N-14-22,2
same,ADAS-Cog-11 score at 3M,"[2]; subject N-14-22, baseline 14.00",9.00
same,ADAS-Cog-11 Change,[2]; subject N-14-22,−5.00
same,Patient Global Rating of Change (GRC),[2]; subject N-16-22,4
same,ADAS-Cog-11 score at 3M,"[2]; subject N-16-22, baseline 21.00",11.00
same,ADAS-Cog-11 Change,[2]; subject N-16-22,−10.00
same,Patient Global Rating of Change (GRC),[2]; subject N-17-22,4
same,ADAS-Cog-11 score at 3M,"[2]; subject N-17-22, baseline 6.67",9.33
same,ADAS-Cog-11 Change,[2]; subject N-17-22,+2.67
same,Patient Global Rating of Change (GRC),[2]; subject N-18-22,4
same,ADAS-Cog-11 score at 3M,"[2]; subject N-18-22, baseline 10.00",8.67
same,ADAS-Cog-11 Change,[2]; subject N-18-22,−1.33
same,Patient Global Rating of Change (GRC),[2]; subject N-20-22,3
same,ADAS-Cog-11 score at 3M,"[2]; subject N-20-22, baseline 4.00",3.33
same,ADAS-Cog-11 Change,[2]; subject N-20-22,−0.67
same,Patient Global Rating of Change (GRC),[2]; subject N-22-22,5
same,ADAS-Cog-11 score at 3M,"[2]; subject N-22-22, baseline 27.67",29.00
same,ADAS-Cog-11 Change,[2]; subject N-22-22,+1.33
same,Patient Global Rating of Change (GRC),[2]; subject N-23-22,3
same,ADAS-Cog-11 score at 3M,"[2]; subject N-23-22, baseline 9.33",10.00
same,ADAS-Cog-11 Change,[2]; subject N-23-22,+0.67
